Results from US20240293359A1, “PROPHYLACTIC OR THERAPEUTIC DRUG FOR PARKINSON'S DISEASE” (Kyowa Pharma Chemical Co., Ltd., priority 2021, published 2024).
In brackets after ≈: the same amount, converted by molar mass.

Columns and labels:
[1] = tested on: dopamine oxidation accelerated in the presence of Fe^3+; assay: Suppression test of dopamine oxidation accelerated in presence of iron ions; assay type: biochemical; conditions: dopamine 2 mmol/L, Fe^3+ 2 mmol/L, hydrogen peroxide 1 moL/L, 0.2 M phosphate buffer pH 6.5, 25° C., 6 to 9 hours
Method: For a test, dopamine hydrochloride (DA·HCl), iron(III) nitrate 9-hydrate (Fe(NO3)3·9H2O) as Fe^3+ source, hydrogen peroxide solution as oxidant, glutathione trisulfide 2-hydrate, lipoic acid trisulfide, pantethine trisulfide, or N,N′-diacetyl-L-cysteine trisulfide as trisulfide compound were used.
A method of preparing each substance is as follows. • 10 mM DA-HCl aqueous solution: prepared by dissolving DA·HCl in purified water. • 20 mM Fe^3+ solution: prepared by dissolving Fe(NO3)3·9H2O in 5 mmol/L H2SO4. • 40 mM glutathione trisulfide solution: prepared by dissolving glutathione trisulfide 2-hydrate in 0.2 mol/L phosphate buffer solution (pH=6.5). • 40 mM lipoic acid trisulfide solution: prepared by dissolving lipoic acid trisulfide in 0.2 mol/L phosphate buffer solution (pH=6.5). • 400 mM pantethine trisulfide solution: prepared by dissolving pantethine trisulfide in 0.2 mol/L phosphate buffer solution (pH==6.5). • 40 mM N,N′-diacetyl-L-cysteine trisulfide: prepared by dissolving N,N′-diacetyl-L-cysteine trisulfide in 0.2 mol/L phosphate buffer solution (pH=6.5).
The pre-prepared preparation solution of each substance (mentioned above) and 0.2 M phosphate buffer solution (pH=6.5) were mixed in a 50 mL or 5 mL test tube to prepare 20 mL or 2 mL reaction solution so that each substance has the following concentration in the reaction solution. • Dopamine: 2 mmol/L • Fe^3+: 2 mmol/L • Hydrogen peroxide: 1 moL/L • Glutathione trisulfide: 3 concentrations (5, 10 or 20 mmol/L) • Lipoic acid trisulfide: 2 concentrations (10 or 20 mmol/L) • Pantethine trisulfide: 3 concentrations (100, 150 or 200 mmol/L) • N,N′-diacetyl-L-cysteine trisulfide: 3 concentrations (5, 10 or 20 mmol/L)
The reaction solution was stirred at 25° C., 500 rpm for 6 to 9 hours. The dopamine concentration in the reaction solution was quantified with high performance liquid chromatography (HPLC).
The conditions for HPLC is as follows. • Detector: Ultraviolet absorptiometer (measuring wavelength: 280 nm) • Column: Inertsil ODS-2 (4.6 mm I.D.×150 mm, 5 μm) • Column temperature: constant temperature around 35° C. • Mobile phase: prepared by adding 0.2 mol/L citric acid aqueous solution to 0.2 mol/L disodium hydrogenphosphate aqueous solution to adjust to pH 3.0. • Flow rate: 0.7 mL/min • Amount infused: 20 μL • Area measurement range: for 30 minutes after infusion of sample solution Preparation of sample solution: prepared by diluting 100 μL reaction solution 10-fold with water to form sample solution • Retention time: Dopamine (DA) approximately 7 minutes

[2] = Solubility in water at 20° C.; assay type: physicochemical; conditions: free lipoic acid trisulfide

CC(C)(CO)[C@@H](O)C(=O)NCCC(=O)NCCSSSCCNC(=O)CCNC(=O)[C@H](O)C(C)(C)CO [pantethine trisulfide]
suppression of dopamine oxidation in the presence of Fe^3+ (dopamine concentration by HPLC, FIG. 3) ([1]; pantethine trisulfide 100, 150 or 200 mmol/L): suppressed the dopamine oxidation

O=C(O)CCCCC1CCSSS1 (racemic) [lipoic acid trisulfide]
suppression of dopamine oxidation in the presence of Fe^3+ (dopamine concentration by HPLC, FIG. 2) ([1]; lipoic acid trisulfide 10 or 20 mmol/L): suppressed the dopamine oxidation

CC(=O)N[C@@H](CSSSC[C@H](NC(C)=O)C(=O)O)C(=O)O [N,N′-diacetyl-L-cysteine trisulfide]
suppression of dopamine oxidation in the presence of Fe^3+ (dopamine concentration by HPLC, FIG. 4) ([1]; N,N′-diacetyl-L-cysteine trisulfide 5, 10 or 20 mmol/L): suppressed the dopamine oxidation

N[C@@H](CCC(=O)N[C@@H](CSSSC[C@H](NC(=O)CC[C@H](N)C(=O)O)C(=O)NCC(=O)O)C(=O)NCC(=O)O)C(=O)O [Glutathione trisulfide, glutathione trisulfide]
suppression of dopamine oxidation in the presence of Fe^3+ (dopamine concentration by HPLC, FIG. 1) ([1]; glutathione trisulfide 5, 10 or 20 mmol/L): suppressed the dopamine oxidation

O=C(O)CCCC[C@@H]1CCSSS1 [Lipoic acid trisulfide R body, (R)-lipoic acid trisulfide]
solubility [2]: 0.3 mg/mL (≈ 1260 µM)
